Here are results for 2 molecules from US20180215784A1, “METHOD FOR PREPARATION OF N-ACYL PEPTIDES, POLYPEPTIDES AND PROTEINS” (NEODEL TEC LTD., priority 2015, published 2018).

In brackets after ≈: the same amount, converted by molar mass. Like-named read-outs stand apart in the source and are kept apart here. Bounds are passed on as bounds.

For data set [1], the system named is human skin fibroblast cell line CRL1121. The data set can be described thus: Stimulation of pro-collagen synthesis/secretion in cultured human skin fibroblasts (immunoblotting, densitometry). The data set is classed as cell-based. To be noted: for pro-collagen synthesis/secretion: serum-free medium with sodium ascorbate and 0.5% ethanol, vs control carrier, immunoblot FIG. 1. The protocol: The effect of N-octanoyl-Gly-Pro (also referred to herein as OGP) prepared in Example 2 on intracellular synthesis of pro-collagen, the precursor of collagen, was tested. OGP was applied from a 250 mg/ml stock solution in ethanol. The composition of the solute, estimated by thin layer chromatography, was 80% OGP, 15% nicotinamide and 5% octanoic acid.
The human skin fibroblast cell line CRL1121, obtained from ATCC (American Type Culture Collection), was used for monitoring pro-collagen synthesis. Cells were grown in high glucose-DMEM containing 10% Fetal Calf Serum and antibiotics (streptomycin and penicillin). Confluent cells were suspended and inoculated into wells in 96-well microplates at 7,500 cells/well. At confluency, the cells were placed on fresh medium plus sodium ascorbate (50 μg/ml) for 24 hrs. The cells were then washed with phosphate-buffered saline (PBS) and placed on serum-free medium containing sodium ascorbate, 0.5% ethanol and 50 μM OGP. Controls included cells placed in the same medium, without OGP. After 24 hrs incubation of the experimental and control cells, media were collected, centrifuged, and the proteins were denatured by SDS and heat, and stored at −20° C. for immunoblotting analyses. The cell layers were washed with PBS, dissolved in SDS sample buffer, centrifuged and stored at −20° C. until use.
The relative amount of pro-collagen secreted into the medium was determined by immunoblotting with an antibody directed to the C-terminal telopeptide of the α1(I) collagen chain, followed by enhanced chemiluminescence detection and densitometry (Shalitin N, Schlesinger H, Levy, M J, Kessler E, Kessler-Icekson G. Expression of procollagen C-proteinase enhancer in cultured rat heart fibroblasts: Evidence for co-regulation with type I collagen, J. Cell. Biochem. 90:397-407, 2003). Protein concentrations in the cell lysates were determined using the Lowry method and served for standardization. The relative Optical Density of the band corresponding to the (I) chain of pro-collagen was divided by the amount of protein and was expressed as D/P (i.e. band intensity per 1 μg protein). […] FIG. 2 presents the relative amounts of the produced and secreted pro-collagen in the OGP-treated culture compared to the control.
(In western blotting, separated proteins are transferred to a membrane and probed.)

The conditions of data set [2]: cited from earlier work.

Take N-octanoyl-Gly-Pro [OGP]: the pro-collagen synthesis/secretion result is listed as “greatly enhanced pro-collagen synthesis” in data set [1] (50 μM OGP, 24 hrs) and “stimulates pro-collagen synthesis/secretion” in data set [1] (50 μM OGP, 24 hrs, listed as Oct-GP). Also, the “increase of pro-collagen synthesis and secretion (factor vs control)” value in data set [1] (50 μM OGP, 24 hrs, densitometry of control lanes 3 and 4, standardized to protein contents) is ≥ 8.3. The “relative amounts of pro-collagen produced and secreted into the medium (D/P ratio)” value in data set [1] (Oct-GP-treated culture vs control, densitometry standardized by protein, FIG. 2) is “higher than those of the control”.
On to `NC(=O)c1cccnc1` [nicotinamide], for which the solubility in data set [2] (ethanol) was 1 g/1.5 ml; in data set [2] (water), 1 g/mL (≈ 8190 mM).
